This note sets out measurements from PubChem BioAssay AID1996.

≈ marks a conversion by molar mass, not a printed value.

For the data set the following is noted: buffer; pH 7.4; 200.0 µM.
Regarding `COc1ccc(OC)c(NC(=O)COC(=O)CCc2ccc(S(=O)(=O)N3CCOCC3)cc2)c1`, the solubility (kinetic) (in general, the concentration staying in solution when a stock, usually in DMSO, is diluted into the medium) amounted to 29 µg/mL (≈ 58.9 µM). The result for `Cc1nc(SCC(=O)NC2CC2)c2c(C)c(C)sc2n1` reads 11.6 µg/mL (≈ 37.7 µM); that for `O=C(N[C@@H](Cc1c[nH]c2ccccc12)C(=O)O)c1ccc(Cl)cc1`, greater than 51.4 µg/mL; that for `O=c1c2ccccc2[nH]c2ccccc12`, 4.7 µg/mL (≈ 24.1 µM). The result for `CC1CCN(C(=O)CN(Cc2ccc(Cl)cc2)S(C)(=O)=O)CC1` reads 52.8 µg/mL (≈ 147 µM). For the compound `COc1ccc(CCCC(=O)NCCc2ccccc2)c(C)c1`, the solubility (kinetic) amounted to 10.5 µg/mL (≈ 33.7 µM).

Compound `CCCn1c(C(C)NS(=O)(=O)c2ccccc2)n[nH]c1=S` (configuration not stated) showed a kinetic solubility greater than 49 µg/mL. The result for `O=C1CNC(=O)/C(=C\c2ccc(F)cc2)N1` reads 5 µg/mL (≈ 22.7 µM); that for `NC(=O)c1ccc[n+](CC(=O)NCc2ccc(Cl)cc2)c1.[Cl-]`, greater than 51 µg/mL; that for `Cc1cc2nc(C)c3c(n2n1)CCC3`, greater than 28.1 µg/mL.

Regarding `c1ccc(-c2nc3cccnc3nc2-c2ccccc2)cc1`, the kinetic solubility was found to be 33.1 µg/mL (≈ 117 µM). For `Cc1c(C(=O)NCC(c2ccco2)N2CCCC2)sc2ccccc12` (configuration not stated), the kinetic solubility is greater than 53.2 µg/mL.

For the compound `O=C(c1ccccn1)N1CCN(c2cccc(C(F)(F)F)c2)CC1`, the kinetic solubility was greater than 50.3 µg/mL. As to `CC(C)(C)NC(=O)COC(=O)C1c2ccccc2Oc2ccccc21`, the kinetic solubility was determined as 48.9 µg/mL (≈ 144 µM). The result for `CC(C)c1ccc(NC2=CC(=O)CC(C)(C)C2)cc1` reads 2.6 µg/mL (≈ 10.1 µM); that for `COc1ccc(/C=C2\SC(=O)N(CC(=O)Nc3cccc(C)c3)C2=O)cc1O`, 0.6 µg/mL (≈ 1.51 µM). `Cc1csc(NC(=O)CCCNC(=O)c2ccc(Cl)cc2)n1` gave a kinetic solubility of 10.2 µg/mL (≈ 30.2 µM). Compound `CC(C(=O)NC(c1ccccc1)c1ccccc1)N1CCOCC1` (configuration not stated) came in with a kinetic solubility of 44.9 µg/mL (≈ 138 µM). The result for `C=CCn1c(O)c(Cc2ccc(OCC)cc2)c(=O)[nH]c1=O` reads 43.7 µg/mL (≈ 145 µM). On to `COc1cc2nc(NC(=O)c3ccccc3)sc(=O)c2cc1OC`, for which the solubility (kinetic) was less than 0.4 µg/mL. The result for `Cc1ccc(N2C(=O)CC(=O)NC2=O)c(C)c1` reads greater than 34.8 µg/mL; that for `CC1CN(S(=O)(=O)c2cccc(C(F)(F)F)c2)CC(C)O1` (configuration not stated), 43.6 µg/mL (≈ 135 µM); that for `NS(=O)(=O)c1ccc(CCNC(=S)NC2CCCC2)cc1`, greater than 49.1 µg/mL. Consider `Cc1nc(Cl)c(C(=O)Nc2cccc(F)c2)c(C)c1Cl`, for which the solubility (kinetic) was found to be 4.9 µg/mL (≈ 15.6 µM).

The compound `CC(=O)c1sc2nsc(SCCN3CCOCC3)c2c1N` registered a kinetic solubility greater than 51.5 µg/mL. `OCCNC(=S)Nc1cccc(Cl)c1Cl` displayed a solubility (kinetic) greater than 39.8 µg/mL. In the case of `CCNc1ccc(S(=O)(=O)N2CCCCC2)cn1`, the solubility (kinetic) was greater than 40.4 µg/mL. In the case of `Cc1ccccc1NC(=O)CCl` it was 26.2 µg/mL (≈ 143 µM); in that of `Cc1cccc(C(=O)O/N=C(\N)Cc2cccc3ccccc23)c1`, 2.3 µg/mL (≈ 7.22 µM); in that of `CC(C)NC(=O)COc1ccc(S(=O)(=O)N2CCCC2)cc1`, greater than 49 µg/mL. In the case of `CCOC(=O)C1CCCN(C(=O)c2cc3ccc(OC)cc3[nH]2)C1` (configuration not stated) it was greater than 49.6 µg/mL. `CCCOc1ccc(-c2cn3ccccc3n2)cc1` had a solubility (kinetic) of 2.3 µg/mL (≈ 9.12 µM).

Regarding `Cl.NOCC(=O)O`, the solubility (kinetic) is greater than 16.4 µg/mL. In the case of `Cc1ccc2nc(Cl)c(/C=C/C(=O)c3ccco3)cc2c1` it was 15.4 µg/mL (≈ 51.7 µM); in that of `O=C1CSC(c2ccccc2)N1Cc1ccccn1` (configuration not stated), greater than 40.6 µg/mL. Compound `COc1ccc(C(N)=O)c(OCC(=O)Nc2cc(C)on2)c1` showed a kinetic solubility of 11 µg/mL (≈ 36 µM).

Take `O=C(NCC(c1ccco1)N1CCCCC1)c1ccc(S(=O)(=O)Nc2ccccc2Cl)cc1` (configuration not stated): the kinetic solubility came out at 17.7 µg/mL (≈ 36.3 µM). The result for `OC(CNCc1ccccc1Cl)C(F)(F)F` (configuration not stated) reads 34.1 µg/mL (≈ 134 µM). Compound `COC(=O)c1ccc(CN2CCCCC2)cc1` came in with a solubility (kinetic) of 28.9 µg/mL (≈ 124 µM). In the case of `CC(C)Cc1nnc(NC(=O)CCC(=O)N2CCCCC2)s1` it was greater than 48.7 µg/mL; in that of `O=S(=O)(c1ccccc1)c1nc(-c2ccco2)oc1N1CCCCC1`, 16.1 µg/mL (≈ 44.9 µM). In the case of `Cc1cccc(C(C)C)c1NC(=O)c1cc2ccccc2o1` it was 6.1 µg/mL (≈ 20.8 µM).
